This passage reports T/C results from PubChem BioAssay AID266 (DTP/NCI, 2004).

The subject of the assay is Nude mice, LX-1 lung xenograft intrarenal, tumor weight T/C. Kind of assay: NCI In Vivo Anticancer Drug Screen. Data for tumor model Human Lung LX-1 Xenograft (intrarenal inoculation) in NU/NU BALB/C (nude) mice. The conditions noted are these: endpoint: mean tumor weight change, higher = larger tumour. The procedure:
The antitumor activity of compounds was measured in mice bearing transplantable tumors. Survival or tumor size were measured and the results are expressed as the measurement made in the treated group (T) divided by the measurement made in the vehicle treated control group (C). The tumor model used in this assay is Human Lung LX-1 Xenograft (intrarenal inoculation) in NU/NU BALB/C (nude) mice

Where [1] appears, read: dose: 50.0 mg/kg/injection, schedule: Q01DX010 (sc), vehicle: Klucel (hydroxypropylcellulose) (HPC).
Setting [2] is: dose: 100.0 mg/kg/injection, schedule: Q01DX010 (sc), vehicle: Klucel (hydroxypropylcellulose) (HPC).
Where [3] appears, read: dose: 200.0 mg/kg/injection, schedule: Q01DX010 (sc), vehicle: Klucel (hydroxypropylcellulose) (HPC).
The mark [4] stands for this setting: dose: 75.0 mg/kg/injection, schedule: Q04DX003 (ip), vehicle: saline.
[5] abbreviates: dose: 300.0 mg/kg/injection, schedule: Q04DX003 (sc), vehicle: saline.
Where [6] appears, read: dose: 600.0 mg/kg/injection, schedule: Q04DX003 (sc), vehicle: saline.
The mark [7] stands for this setting: dose: 1200.0 mg/kg/injection, schedule: Q04DX003 (sc), vehicle: saline.
Setting [8] is: dose: 300.0 mg/kg/injection, schedule: Q04DX003 (sc), vehicle: saline with Tween-80.
Setting [9] is: dose: 600.0 mg/kg/injection, schedule: Q04DX003 (sc), vehicle: saline with Tween-80.
Setting [10] is: dose: 1200.0 mg/kg/injection, schedule: Q04DX003 (sc), vehicle: saline with Tween-80.
Where [11] appears, read: dose: 2400.0 mg/kg/injection, schedule: Q04DX003 (sc), vehicle: saline with Tween-80.
The mark [12] stands for this setting: dose: 300.0 mg/kg/injection, schedule: Q04DX003 (sc), vehicle: Klucel (hydroxypropylcellulose) (HPC).
Setting [13] is: dose: 1200.0 mg/kg/injection, schedule: Q04DX003 (sc), vehicle: Klucel (hydroxypropylcellulose) (HPC).
The mark [14] stands for this setting: dose: 400.0 mg/kg/injection, schedule: Q01DX010 (sc), vehicle: Klucel (hydroxypropylcellulose) (HPC).
Where [15] appears, read: dose: 25.0 mg/kg/injection, schedule: Q04DX003 (sc), vehicle: saline.
[16] abbreviates: dose: 50.0 mg/kg/injection, schedule: Q04DX003 (sc), vehicle: saline.
Setting [17] is: dose: 100.0 mg/kg/injection, schedule: Q04DX003 (sc), vehicle: saline.

Each structure is given as a SMILES string. “And” between values parts separate entries of the source, which are not always exact repeats. Identical values can stand only once. Inconclusive results are not listed.

In the case of `COc1cc2cc(c1Cl)N(C)C(=O)C[C@H](OC(=O)[C@H](C)N(C)C(C)=O)[C@]1(C)O[C@H]1[C@H](C)[C@@H]1C[C@@](O)(NC(=O)O1)[C@H](OC)C=C/C=C(\C)C2`, the T/C runs as follows: under setting [1], 72 % of control; under setting [2], 3 % of control; under setting [3], 1 % of control; (dose: 12.5 micrograms/kg/injection, schedule: Q01DX010 (sc), vehicle: Klucel (hydroxypropylcellulose) (HPC)) 224 % of control; (dose: 25.0 micrograms/kg/injection, schedule: Q01DX010 (sc), vehicle: Klucel (hydroxypropylcellulose) (HPC)) 77 % of control; (dose: 50.0 micrograms/kg/injection, schedule: Q01DX010 (sc), vehicle: Klucel (hydroxypropylcellulose) (HPC)) 73 % of control. Besides, the T/C (dose: 100.0 micrograms/kg/injection, schedule: Q01DX010 (sc), vehicle: Klucel (hydroxypropylcellulose) (HPC)) is 32 % of control and the T/C (dose: 200.0 micrograms/kg/injection, schedule: Q01DX010 (sc), vehicle: Klucel (hydroxypropylcellulose) (HPC)) is 2 % of control.

As for `CN(C)CCC(=O)C(=Cc1ccc(O)cc1)C(=O)CCN(C)C`, the T/C is 95 % of control under setting [4] and 116 % of control (dose: 150.0 mg/kg/injection, schedule: Q04DX003 (ip), vehicle: saline).

As for `OCC(O)C(O)C(O)C(O)CO` (stereo unspecified), the T/C reads like this: under setting [4], 108 % of control; (dose: 600.0 mg/kg/injection, schedule: Q04DX003 (ip), vehicle: saline) 109 % of control; (dose: 1200.0 mg/kg/injection, schedule: Q04DX003 (ip), vehicle: saline) 94 % of control.

For `O=C(O)CP(=O)(O)O`, the T/C is, setting by setting: under setting [5], 105 % of control; under setting [6], 156 % of control; under setting [7], 106 % of control.

On to `O=C(c1cccnc1)c1cc(-c2ccccn2)c(=O)n2ccccc12`, for which the T/C under setting [8] was 95 % of control, the T/C under setting [9] is 74 % of control, the T/C under setting [10] is 92 % of control and the T/C under setting [11] was 74 % of control.

`COC(=O)Nc1cn2cc(C(=O)c3cccs3)ccc2n1`: the T/C is, setting by setting: under setting [12], 94 % of control; (dose: 600.0 mg/kg/injection, schedule: Q04DX003 (sc), vehicle: Klucel (hydroxypropylcellulose) (HPC)) 96 % of control; under setting [13], 54 % of control; (dose: 2400.0 mg/kg/injection, schedule: Q04DX003 (sc), vehicle: Klucel (hydroxypropylcellulose) (HPC)) 99 % of control.

As to `N#CC(OC1OC(COC2OC(CO)C(O)C(O)C2O)C(O)C(O)C1O)c1ccccc1` (stereo unspecified), the T/C under setting [5] was 162 % of control; the T/C under setting [6] is 115 % of control; the T/C under setting [7] was 193 % of control; the T/C (dose: 2400.0 mg/kg/injection, schedule: Q04DX003 (sc), vehicle: saline) is 158 % of control.

Take `CC(=O)NC(Cc1ccc(F)cc1)C(=O)O` (stereo unspecified): the T/C was 112 % of control under setting [8], 71 % of control under setting [9], 91 % of control under setting [10] and 107 % of control under setting [11].

As to `N=[N+]=CC(=O)CCC(NC(=O)C(CCC(=O)C=[N+]=N)NC(=O)CCC(N)C(=O)O)C(=O)O` (stereo unspecified), the T/C reads like this: (dose: 0.2 mg/kg/injection, schedule: Q02DX005 (sc), vehicle: water) 114 % of control; (dose: 0.4 mg/kg/injection, schedule: Q02DX005 (sc), vehicle: water) 73 % of control; (dose: 0.8 mg/kg/injection, schedule: Q02DX005 (sc), vehicle: water) 26 % of control; (dose: 1.6 mg/kg/injection, schedule: Q02DX005 (sc), vehicle: water) 74 % of control; (dose: 3.2 mg/kg/injection, schedule: Q02DX005 (sc), vehicle: water) 65 % of control; (dose: 6.4 mg/kg/injection, schedule: Q02DX005 (sc), vehicle: water) 41 % of control.

In the case of `O=C(CCBr)N1CCN(C(=O)CCBr)CC1`, under setting [1], the T/C was 48 % of control.

As for `Cn1cc(C2NC(=O)c3ccccc3N2)c2ccccc21` (stereo unspecified), the T/C is 83 % of control and 103 % of control under setting [12]; 111 % of control and 92 % of control (dose: 900.0 mg/kg/injection, schedule: Q04DX003 (sc), vehicle: Klucel (hydroxypropylcellulose) (HPC)); 90 % of control and 103 % of control under setting [13].

Take `CC(C)C(N)C(=O)Nc1nncs1` (stereo unspecified): the T/C reads like this: (dose: 150.0 mg/kg/injection, schedule: Q04DX003 (sc), vehicle: saline) 102 % of control; under setting [5], 74 % of control; under setting [6], 78 % of control.

As for `CC[C@@]1(O)C[C@H](OC2CC(N(C)C)C(OC3CC(O)C(OC4CCC(=O)C(C)O4)C(C)O3)C(C)O2)c2c(cc3c(c2O)C(=O)c2c(O)cccc2C3=O)[C@H]1C(=O)OC` (stereo partly specified), the T/C is 36 % of control (dose: 1.0 mg/kg/injection, schedule: Q01DX010 (sc), vehicle: water); 63 % of control (dose: 1.66 mg/kg/injection, schedule: Q04DX003 (sc), vehicle: water); 6 % of control (dose: 2.0 mg/kg/injection, schedule: Q01DX010 (sc), vehicle: water); 60 % of control (dose: 3.33 mg/kg/injection, schedule: Q04DX003 (sc), vehicle: water); 18 % of control (dose: 6.65 mg/kg/injection, schedule: Q04DX003 (sc), vehicle: water).

For the molecule `CN(C)N=Nc1ccc(S(N)(=O)=O)cc1`, the T/C is, setting by setting: under setting [2], -13 % of control; (dose: 100.0 mg/kg/injection, schedule: Q04DX003 (sc), vehicle: Klucel (hydroxypropylcellulose) (HPC)) 38 % of control and 61 % of control; under setting [3], -72 % of control; (dose: 200.0 mg/kg/injection, schedule: Q04DX003 (sc), vehicle: Klucel (hydroxypropylcellulose) (HPC)) 3 % of control and 11 % of control; under setting [14], -100 % of control.

With `COc1ccc2cc1Oc1ccc(cc1)C[C@H]1c3cc(c(OC)cc3CCN1C)Oc1c(OC)c(OC)cc3c1[C@H](C2)N(C)CC3`, the T/C is 110 % of control (dose: 100.0 mg/kg/injection, schedule: Q01DX010 (sc), vehicle: saline with Tween-80) and 122 % of control (dose: 200.0 mg/kg/injection, schedule: Q01DX010 (sc), vehicle: saline with Tween-80).

Consider `CC[As](=O)(O)CC`, for which the T/C by setting is: under setting [15], 77 % of control; under setting [16], 82 % of control; under setting [17], 51 % of control; (dose: 200.0 mg/kg/injection, schedule: Q04DX003 (sc), vehicle: saline) 70 % of control.

`CC(=O)O[C@H]1C(=O)[C@@]2(C)[C@H]([C@H](OC(=O)c3ccccc3)[C@]3(O)C[C@H](OC(=O)[C@H](O)[C@@H](NC(=O)c4ccccc4)c4ccccc4)C(C)=C1C3(C)C)[C@]1(OC(C)=O)CO[C@@H]1C[C@@H]2O`: the T/C is, setting by setting: under setting [1], 63 % of control; under setting [2], 93 % of control; under setting [3], 68 % of control; under setting [14], 51 % of control.

For the molecule `CC(=O)Oc1c[nH]c(=O)[nH]c1=O`, the T/C reads like this: (dose: 200.0 mg/kg/injection, schedule: Q04DX003 (sc), vehicle: distilled water + Tween-80) 98 % of control; (dose: 400.0 mg/kg/injection, schedule: Q04DX003 (sc), vehicle: distilled water + Tween-80) 76 % of control; (dose: 800.0 mg/kg/injection, schedule: Q04DX003 (sc), vehicle: distilled water + Tween-80) 104 % of control.

On to `S=P(N1CC1)(N1CC1)N1CC1`, for which the T/C (dose: 4.0 mg/kg/injection, schedule: Q01DX010 (sc), vehicle: saline) is 77 % of control.

`O=S(CCCl)CCCl`: the T/C was 81 % of control (dose: 25.0 mg/kg/injection, schedule: Q04DX003 (sc), vehicle: Klucel (hydroxypropylcellulose) (HPC)) and 76 % of control (dose: 50.0 mg/kg/injection, schedule: Q04DX003 (sc), vehicle: Klucel (hydroxypropylcellulose) (HPC)).

Turning to `COc1cccc2c1C(=O)c1c(O)c3c(c(O)c1C2=O)C[C@@](O)(/C(C)=N\O)C[C@@H]3OC1CC(N)C(O)C(C)O1` (stereo partly specified), the T/C is, setting by setting: under setting [15], 87 % of control; under setting [16], 65 % of control and 76 % of control; under setting [17], 17 % of control and 18 % of control.

In the case of `C1CN1c1nc(N2CC2)nc(N2CC2)n1`, the T/C reads like this: (dose: 0.25 mg/kg/injection, schedule: Q01DX010 (sc), vehicle: saline) 34 % of control; (dose: 0.5 mg/kg/injection, schedule: Q01DX010 (sc), vehicle: saline) 45 % of control.
